Data reported in the supplement of paper PMC10733146.

Key:
Assay in all cases: viability relative to DMSO control (fraction); higher = less drug effect (more viable cells)
Details in all cases: 48 h
Venetoclax = compound: CC1(C)CCC(CN2CCN(c3ccc(C(=O)NS(=O)(=O)c4ccc(NCC5CCOCC5)c([N+](=O)[O-])c4)c(Oc4cnc5[nH]ccc5c4)c3)CC2)=C(c2ccc(Cl)cc2)C1 [Venetoclax]
In short: (§1)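 Viability was measured as CellTiter-Glo luminescence relative to the median of 16 inner DMSO wells. Primary mononuclear tumour cells, fresh or cryopreserved, were Ficoll-isolated from blood or bone marrow or taken from processed lymph node. They were seeded at 4 × 10^4 cells per well into 384-well plates holding pre-plated compounds at five concentrations, one well each, and kept in RPMI-1640 with penicillin/streptomycin, L-glutamine and human serum at 37 °C and 5% CO2 for 48 h.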

I-BET-762 = compound: CCNC(=O)C[C@@H]1N=C(c2ccc(Cl)cc2)c2cc(OC)ccc2-n2c(C)nnc21 [I-BET-762]
In short: as §1

CPI-169 = compound: CCS(=O)(=O)N1CCC([C@@H](C)n2c(C)c(C(=O)NCc3c(OC)cc(C)[nH]c3=O)c3ccccc32)CC1 [CPI-169]
In short: as §1

Roscovitine = compound: CC[C@H](CO)Nc1nc(NCc2ccccc2)c2ncn(C(C)C)c2n1 [Roscovitine]
In short: as §1

Vindesine = compound: CC[C@]1(O)C[C@@H]2CN(CCc3c([nH]c4ccccc34)[C@@](C(=O)OC)(c3cc4c(cc3OC)N(C)[C@H]3[C@@](O)(C(N)=O)[C@H](O)[C@]5(CC)C=CCN6CC[C@]43[C@@H]65)C2)C1 [Vindesine]
In short: as §1

Everolimus = compound: CO[C@H]1C[C@@H]2CC[C@@H](C)[C@@](O)(O2)C(=O)C(=O)N2CCCC[C@H]2C(=O)O[C@H]([C@H](C)C[C@@H]2CC[C@@H](OCCO)[C@H](OC)C2)CC(=O)[C@H](C)/C=C(\C)[C@@H](O)[C@@H](OC)C(=O)[C@H](C)C[C@H](C)/C=C/C=C/C=C/1C [Everolimus]
In short: as §1

Idasanutlin (RS7388) = compound: COc1cc(C(=O)O)ccc1NC(=O)[C@@H]1N[C@@H](CC(C)(C)C)[C@](C#N)(c2ccc(Cl)cc2F)[C@H]1c1cccc(Cl)c1F [Idasanutlin (RS7388)]
In short: as §1

[1] = compound: C[C@H]1C[C@@H](n2c(Nc3ccc(OC(F)(F)F)cc3)nc3cc(CCC(=O)O)ccc32)CC(C)(C)C1
In short: as §1

Bendamustine = compound: Cn1c(CCCC(=O)O)nc2cc(N(CCCl)CCCl)ccc21 [Bendamustine]
In short: as §1

[2] = compound: O=C(NO)c1cccc(C(=O)NCCc2ccccc2)c1
In short: as §1

[3] = compound: O=C(Nc1ccc2[nH]nc(-c3ccncc3)c2c1)[C@@H]1CCN(CC(=O)N2CCN(c3ccc(-c4ncccn4)cc3)CC2)C1
In short: as §1

Thalidomide = compound: O=C1CCC(N2C(=O)c3ccccc3C2=O)C(=O)N1 [Thalidomide]
In short: as §1

Entospletinib = compound: c1cn2cc(-c3ccc4cn[nH]c4c3)nc(Nc3ccc(N4CCOCC4)cc3)c2n1 [Entospletinib]
In short: as §1

## primary AML patient cells (S071)
Venetoclax; 0.00064 µM
  viability: 0.824
Venetoclax; 0.0032 µM
  viability: 0.365
Venetoclax; 0.016 µM
  viability: 0.154
Venetoclax; 0.08 µM
  viability: 0.124
Venetoclax; 0.4 µM
  viability: 0.109
I-BET-762; 0.008 µM
  viability: 0.909
I-BET-762; 0.04 µM
  viability: 0.962
I-BET-762; 0.2 µM
  viability: 1.04
I-BET-762; 1 µM
  viability: 0.991
I-BET-762; 5 µM
  viability: 0.829
CPI-169; 0.024 µM
  viability: 0.905
CPI-169; 0.12 µM
  viability: 0.925
CPI-169; 0.6 µM
  viability: 0.931
CPI-169; 3 µM
  viability: 0.937
CPI-169; 15 µM
  viability: 0.903
Roscovitine; 0.032 µM
  viability: 0.895
Roscovitine; 0.16 µM
  viability: 0.933
Roscovitine; 0.8 µM
  viability: 0.849
Roscovitine; 4 µM
  viability: 0.804
Roscovitine; 20 µM
  viability: 0.263
Vindesine; 0.016 µM
  viability: 0.773
Vindesine; 0.08 µM
  viability: 0.679
Vindesine; 0.4 µM
  viability: 0.754
Vindesine; 2 µM
  viability: 0.713
Vindesine; 10 µM
  viability: 0.467
Everolimus; 0.0032 µM
  viability: 0.889
Everolimus; 0.016 µM
  viability: 0.844
Everolimus; 0.08 µM
  viability: 0.848
Everolimus; 0.4 µM
  viability: 0.781
Everolimus; 2 µM
  viability: 0.706
Idasanutlin (RS7388); 0.032 µM
  viability: 0.265
Idasanutlin (RS7388); 0.16 µM
  viability: 0.172
Idasanutlin (RS7388); 0.8 µM
  viability: 0.133
Idasanutlin (RS7388); 4 µM
  viability: 0.103
Idasanutlin (RS7388); 20 µM
  viability: 0.0838
[1]; 0.024 µM
  viability: 0.888
[1]; 0.12 µM
  viability: 0.916
[1]; 0.6 µM
  viability: 0.897
[1]; 3 µM
  viability: 0.946
[1]; 15 µM
  viability: 0.843
Bendamustine; 0.032 µM
  viability: 0.996
Bendamustine; 0.16 µM
  viability: 1.04
Bendamustine; 0.8 µM
  viability: 0.991
Bendamustine; 4 µM
  viability: 0.905
Bendamustine; 20 µM
  viability: 0.597
[2]; 0.024 µM
  viability: 0.951
[2]; 0.12 µM
  viability: 0.938
[2]; 0.6 µM
  viability: 0.954
[2]; 3 µM
  viability: 0.914
[2]; 15 µM
  viability: 0.736
[3]; 0.008 µM
  viability: 0.872
[3]; 0.04 µM
  viability: 0.782
[3]; 0.2 µM
  viability: 0.713
[3]; 1 µM
  viability: 0.618
[3]; 5 µM
  viability: 0.478
Thalidomide; 0.032 µM
  viability: 0.943
Thalidomide; 0.16 µM
  viability: 0.906
Thalidomide; 0.8 µM
  viability: 0.889
Thalidomide; 4 µM
  viability: 0.855
Thalidomide; 20 µM
  viability: 0.875
Entospletinib; 0.024 µM
  viability: 1.04
Entospletinib; 0.12 µM
  viability: 0.996
Entospletinib; 0.6 µM
  viability: 0.968
Entospletinib; 3 µM
  viability: 1.01
Entospletinib; 15 µM
  viability: 0.954

## primary CLL patient cells (S031)
Venetoclax; 0.00064 µM
  viability: 0.848
Venetoclax; 0.0032 µM
  viability: 0.559
Venetoclax; 0.016 µM
  viability: 0.246
Venetoclax; 0.08 µM
  viability: 0.0921
Venetoclax; 0.4 µM
  viability: 0.0313
I-BET-762; 0.008 µM
  viability: 0.986
I-BET-762; 0.04 µM
  viability: 0.964
I-BET-762; 0.2 µM
  viability: 0.969
I-BET-762; 1 µM
  viability: 0.842
I-BET-762; 5 µM
  viability: 0.628
CPI-169; 0.024 µM
  viability: 0.891
CPI-169; 0.12 µM
  viability: 0.931
CPI-169; 0.6 µM
  viability: 0.925
CPI-169; 3 µM
  viability: 0.895
CPI-169; 15 µM
  viability: 0.799
Roscovitine; 0.032 µM
  viability: 0.81
Roscovitine; 0.16 µM
  viability: 0.872
Roscovitine; 0.8 µM
  viability: 0.921
Roscovitine; 4 µM
  viability: 0.734
Roscovitine; 20 µM
  viability: 0.455
Vindesine; 0.016 µM
  viability: 0.447
Vindesine; 0.08 µM
  viability: 0.269
Vindesine; 0.4 µM
  viability: 0.17
Vindesine; 2 µM
  viability: 0.151
Vindesine; 10 µM
  viability: 0.0709
Everolimus; 0.0032 µM
  viability: 0.81
Everolimus; 0.016 µM
  viability: 0.827
Everolimus; 0.08 µM
  viability: 0.808
Everolimus; 0.4 µM
  viability: 0.879
Everolimus; 2 µM
  viability: 0.894
Idasanutlin (RS7388); 0.032 µM
  viability: 0.623
Idasanutlin (RS7388); 0.16 µM
  viability: 0.53
Idasanutlin (RS7388); 0.8 µM
  viability: 0.244
Idasanutlin (RS7388); 4 µM
  viability: 0.0778
Idasanutlin (RS7388); 20 µM
  viability: 0.0346
[1]; 0.024 µM
  viability: 0.737
[1]; 0.12 µM
  viability: 0.895
[1]; 0.6 µM
  viability: 0.868
[1]; 3 µM
  viability: 0.774
[1]; 15 µM
  viability: 0.805
Bendamustine; 0.032 µM
  viability: 1.15
Bendamustine; 0.16 µM
  viability: 1.07
Bendamustine; 0.8 µM
  viability: 1.1
Bendamustine; 4 µM
  viability: 0.991
Bendamustine; 20 µM
  viability: 0.392
[2]; 0.024 µM
  viability: 1.04
[2]; 0.12 µM
  viability: 0.976
[2]; 0.6 µM
  viability: 0.921
[2]; 3 µM
  viability: 0.972
[2]; 15 µM
  viability: 0.966
[3]; 0.008 µM
  viability: 0.782
[3]; 0.04 µM
  viability: 0.686
[3]; 0.2 µM
  viability: 0.469
[3]; 1 µM
  viability: 0.307
[3]; 5 µM
  viability: 0.269
Thalidomide; 0.032 µM
  viability: 0.913
Thalidomide; 0.16 µM
  viability: 0.974
Thalidomide; 0.8 µM
  viability: 0.95
Thalidomide; 4 µM
  viability: 0.97
Thalidomide; 20 µM
  viability: 0.961
Entospletinib; 0.024 µM
  viability: 1.09
Entospletinib; 0.12 µM
  viability: 0.937
Entospletinib; 0.6 µM
  viability: 1.04
Entospletinib; 3 µM
  viability: 0.958
Entospletinib; 15 µM
  viability: 0.934

## primary AML patient cells (S037)
Venetoclax; 0.00064 µM
  viability: 0.954
Venetoclax; 0.0032 µM
  viability: 0.86
Venetoclax; 0.016 µM
  viability: 0.467
Venetoclax; 0.08 µM
  viability: 0.458
Venetoclax; 0.4 µM
  viability: 0.441
I-BET-762; 0.008 µM
  viability: 1.3
I-BET-762; 0.04 µM
  viability: 0.933
I-BET-762; 0.2 µM
  viability: 0.86
I-BET-762; 1 µM
  viability: 0.834
I-BET-762; 5 µM
  viability: 0.712
CPI-169; 0.024 µM
  viability: 0.983
CPI-169; 0.12 µM
  viability: 0.948
CPI-169; 0.6 µM
  viability: 1.01
CPI-169; 3 µM
  viability: 0.938
CPI-169; 15 µM
  viability: 0.926
Roscovitine; 0.032 µM
  viability: 0.951
Roscovitine; 0.16 µM
  viability: 0.908
Roscovitine; 0.8 µM
  viability: 0.955
Roscovitine; 4 µM
  viability: 0.905
Roscovitine; 20 µM
  viability: 0.825
Vindesine; 0.016 µM
  viability: 1.03
Vindesine; 0.08 µM
  viability: 1.01
Vindesine; 0.4 µM
  viability: 0.891
Vindesine; 2 µM
  viability: 0.808
Vindesine; 10 µM
  viability: 0.755
Everolimus; 0.0032 µM
  viability: 0.993
Everolimus; 0.016 µM
  viability: 1.47
Everolimus; 0.08 µM
  viability: 0.995
Everolimus; 0.4 µM
  viability: 1.53
Everolimus; 2 µM
  viability: 0.971
Idasanutlin (RS7388); 0.032 µM
  viability: 0.784
Idasanutlin (RS7388); 0.16 µM
  viability: 0.788
Idasanutlin (RS7388); 0.8 µM
  viability: 0.515
Idasanutlin (RS7388); 4 µM
  viability: 0.4
Idasanutlin (RS7388); 20 µM
  viability: 0.425
[1]; 0.024 µM
  viability: 0.929
[1]; 0.12 µM
  viability: 1.02
[1]; 0.6 µM
  viability: 0.967
[1]; 3 µM
  viability: 0.833
[1]; 15 µM
  viability: 0.895
Bendamustine; 0.032 µM
  viability: 1
Bendamustine; 0.16 µM
  viability: 1
Bendamustine; 0.8 µM
  viability: 1.04
Bendamustine; 4 µM
  viability: 1.06
Bendamustine; 20 µM
  viability: 0.788
[2]; 0.024 µM
  viability: 1.06
[2]; 0.12 µM
  viability: 1
[2]; 0.6 µM
  viability: 0.993
[2]; 3 µM
  viability: 0.996
[2]; 15 µM
  viability: 1.12
[3]; 0.008 µM
  viability: 0.947
[3]; 0.04 µM
  viability: 0.926
[3]; 0.2 µM
  viability: 0.904
[3]; 1 µM
  viability: 0.905
[3]; 5 µM
  viability: 0.914
Thalidomide; 0.032 µM
  viability: 0.966
Thalidomide; 0.16 µM
  viability: 0.952
Thalidomide; 0.8 µM
  viability: 0.92
Thalidomide; 4 µM
  viability: 1.06
Thalidomide; 20 µM
  viability: 0.947
Entospletinib; 0.024 µM
  viability: 1.02
Entospletinib; 0.12 µM
  viability: 0.982
Entospletinib; 0.6 µM
  viability: 1.05
Entospletinib; 3 µM
  viability: 1.05
Entospletinib; 15 µM
  viability: 1.23
